Laboratory results: patent publication US9096594B2, “Kinase inhibitors and methods of use thereof” (priority 2012, dated 2015)
Read-outs that look alike come from different tables or passages of the source.

Columns and labels:
GSK3β [1] = molecular target: T1, GSK3β (Homo sapiens (Human), UniProt P49841)
Procedure: GSK3β Microfluidic Mobility-Shift Assay
(§1) Reactions were terminated by the addition of 10 mM EDTA. Substrate and product were separated electrophoretically and fluorescence intensity of the substrate and product was determined by Labchip EZ Reader II (Caliper Life Sciences, MA). The kinase activity was measured as percent conversion. The reactions were performed in duplicate for each sample. […] The results were analyzed by Genedata Assay Analyzer. The percent inhibition was plotted against the compound concentration and the IC50 value was determined from the logistic dose-response curve fitting.

CDK5/p25 = CDK5/p25 (Homo sapiens (Human), UniProt Q00535)
Procedure: Biochemical characterization of these synthesized compounds were assayed against GSK3β and CDK5/p25, with CDK5/p25 serving as a counter target of GSK3β selectivity. […] The effects of these compounds on survival of SH-SY5Y pathophysiology cells were also monitored.

GSK3α [2] = molecular target: T2, GSK3α (Homo sapiens (Human), UniProt P49840)
GSK3β [3] = molecular target: T1, GSK3β; experiment: biochemical
Procedure: Human GSK3β as a GST fusion expressed in baculoviral system was purchased from BPS Bioscience (San Diego, Calif.). […] Reactions were incubated at room temperature for 60 minutes. 2.5 μL/well of ADP-Glo (Promega, V9103) was added with BioRAPTR, and incubated at room temperature for 40 minutes followed by addition of 5 μL/well of ADP-Glo detection reagent (Promega, V9103) with Combi nL (Thermo, Waltham, Mass.) and incubation at room temperature for 30 minutes. The plates were read on a ViewLux (PerkinElmer, Waltham, Mass.) for luminescence. Data were scaled using the positive and neutral controls and fitted for IC50 as described below.
100 mL/well compounds were pinned. […] Incubated at room temperature for 60 minutes. Added 20 μL/well of ADP-glo (Promega, V9103) with Combi, and incubated at room temperature for 40 minutes. Added 40 μL/well of ADP-glo (Promega, V9103) with Combi, incubated at room temperature for 30 minutes. Read on Envision for luminescence.

GSK3α [4] = molecular target: T2, GSK3α; experiment: biochemical
GSK3β [5] = molecular target: T1, GSK3β; experiment: biochemical; remark: listed apart in the source
Procedure: GSK3β Microfluidic Mobility-Shift Assay
as §1

CK1δ = CK1δ (Homo sapiens (Human), UniProt P48730); experiment: biochemical
Source text: Approximately 20,000 Response Units (RU) of anti GST-antibody (GE Healthcare Life Sciences) were immobilized on Flow Cell (FC) 1 and FC2 of a new, freshly conditioned CM5 Sensor Chip (GE Healthcare Life Sciences) in a Biacore T100 instrument utilizing the immobilization wizard of the T100 software package. Approximately 1,500 RU of recombinant GST (GE Healthcare Life Sciences) was then captured on FC1 utilizing the capture wizard protocol of the T100 software package. FC1 is used as a reference subtraction point for this and all SPR assays. Approximately 2,700 RU of recombinant GST-CK1δ was then captured on FC2 utilizing the capture wizard protocol of the T100 software package. FC2 is used as the active flowcell for this and all SPR assays. The analyte plate is generated in dose response fashion in TBS buffer containing a final concentration of 2% DMSO, with a final analyte concentration of 10 μM, 100 nM and 10 nM. A zero value is determined by running injections of buffer containing only 2% DMSO and no analyte. All injections are run in duplicate and are reference subtracted from FC1. A method consisting of a 60 second contact time and 60 second wash time with a flow rate of 30 μL/min was employed. […] Analysis of compounds was done using the 1:1 binding model and affinity measurements in the Biacore T100 evaluation software package.
Conditioning new chip: PBS immobilization buffer was loaded into buffer shelf and insert buffer line A. Unused CM5 sensor chip was loaded into instrument per user manual. Chip was primed with 6 minutes of buffer injection at 30 μL/min.
Primed chip again as described above. Generated anti GST antibody solution by mixing 4.5 μL anti GST antibody (GE Healthcare Life Sciences, GST Capture Kit) with 95.5 μL immobilization buffer (GE Healthcare Life Sciences, GST Capture Kit). Put solution into 700 μL small vial and cap. Repeated. Placed both vials in reagent rack 1 of Biacore T100 instrument and insert into machine per user manual. Initiated immobilization of anti GST antibody by utilizing the immobilization Wizard protocol of Biacore T100 software. Immobilized approximately 20,000 Response Units (RU) of anti GST antibody on FC1 and FC2. […] Inserted buffer line A. Repeated prime procedure. Generated GST protein solution by mixing 2 μL of recombinant GST (GE Healthcare Life Sciences, GST Capture Kit) with 98 μL TBS 2% DMSO buffer. Generated GST-CK1δ protein solution by mixing 5 μL of recombinant GST-CK1δ with 95 μL TBS 2% DMSO running buffer. Placed GST protein solution in position B1 on reagent rack 1. Placed GST-CK1δ protein solution in position Cl on reagent rack 1. Initiated a manual injection run and inject for 30 seconds at 5 μL/min GST protein solution on FC1 to generate reference flow cell. […] Captured approximately 1500 RU GST protein on FC1. Captured approximately 2700 RU GST-CK1δ protein on FC2.
An analyte plate was generated for the assay. Using a standard deep volume 384 well plate, placed 100 μL of a 10 μM analyte in TBS 2% DMSO solution wells A1 and A2. Placed 100 μL of a 50 nM analyte in TBS 2% DMSO solution in wells A3 and A4. Placed 100 μL of a 10 nM analyte in TBS 2% DMSO solution in wells A5 and A6. Placed 100 μL of TBS 2% DMSO running buffer in wells A7 and A8. Repeated steps for subsequent analytes. Placed analyte plate in Biacore T100 per user manual.

GSK3β [6] = molecular target: T1, GSK3β; experiment: biochemical; remark: listed apart in the source

Sequence of CK1δ (P48730 whole entry): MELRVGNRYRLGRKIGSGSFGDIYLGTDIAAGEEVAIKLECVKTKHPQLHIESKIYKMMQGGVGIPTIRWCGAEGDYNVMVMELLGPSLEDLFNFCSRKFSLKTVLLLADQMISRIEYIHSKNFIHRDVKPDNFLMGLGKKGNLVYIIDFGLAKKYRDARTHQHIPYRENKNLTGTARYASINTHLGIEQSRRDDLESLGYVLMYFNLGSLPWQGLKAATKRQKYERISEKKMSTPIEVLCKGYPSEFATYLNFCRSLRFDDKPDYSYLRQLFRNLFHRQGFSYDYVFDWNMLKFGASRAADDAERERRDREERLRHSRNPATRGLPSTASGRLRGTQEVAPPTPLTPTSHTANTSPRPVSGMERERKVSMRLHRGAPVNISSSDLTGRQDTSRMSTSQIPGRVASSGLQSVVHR
T1 sequence (P49841 whole entry): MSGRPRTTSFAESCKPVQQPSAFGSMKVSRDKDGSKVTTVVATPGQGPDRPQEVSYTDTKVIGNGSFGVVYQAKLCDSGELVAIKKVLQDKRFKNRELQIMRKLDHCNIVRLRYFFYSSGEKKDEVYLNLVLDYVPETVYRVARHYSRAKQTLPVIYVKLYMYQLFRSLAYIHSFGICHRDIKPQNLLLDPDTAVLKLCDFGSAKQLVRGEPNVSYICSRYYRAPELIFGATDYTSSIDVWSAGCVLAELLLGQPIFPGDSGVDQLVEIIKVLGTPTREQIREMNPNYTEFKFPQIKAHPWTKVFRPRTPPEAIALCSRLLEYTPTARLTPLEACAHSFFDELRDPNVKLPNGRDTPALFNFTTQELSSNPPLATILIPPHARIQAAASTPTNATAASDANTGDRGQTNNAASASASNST
Sequence of CDK5/p25 (Q00535 whole entry, species assumed): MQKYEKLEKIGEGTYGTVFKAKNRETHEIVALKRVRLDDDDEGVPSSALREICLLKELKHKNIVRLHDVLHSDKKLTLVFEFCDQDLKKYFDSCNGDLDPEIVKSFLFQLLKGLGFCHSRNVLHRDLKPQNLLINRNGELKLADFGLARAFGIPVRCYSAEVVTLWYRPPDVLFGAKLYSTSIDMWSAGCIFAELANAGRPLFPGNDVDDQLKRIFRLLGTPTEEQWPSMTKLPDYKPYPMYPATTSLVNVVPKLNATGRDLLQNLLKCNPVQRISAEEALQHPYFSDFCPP
Sequence of CDK5/p25 (Q15078 99-307 partner, species assumed): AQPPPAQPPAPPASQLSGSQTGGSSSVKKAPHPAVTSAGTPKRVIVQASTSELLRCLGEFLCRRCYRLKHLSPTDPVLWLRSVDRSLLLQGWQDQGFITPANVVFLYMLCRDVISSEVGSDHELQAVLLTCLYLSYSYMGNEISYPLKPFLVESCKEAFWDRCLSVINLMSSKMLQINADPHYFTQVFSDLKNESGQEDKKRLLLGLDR
T2 sequence (P49840 whole entry): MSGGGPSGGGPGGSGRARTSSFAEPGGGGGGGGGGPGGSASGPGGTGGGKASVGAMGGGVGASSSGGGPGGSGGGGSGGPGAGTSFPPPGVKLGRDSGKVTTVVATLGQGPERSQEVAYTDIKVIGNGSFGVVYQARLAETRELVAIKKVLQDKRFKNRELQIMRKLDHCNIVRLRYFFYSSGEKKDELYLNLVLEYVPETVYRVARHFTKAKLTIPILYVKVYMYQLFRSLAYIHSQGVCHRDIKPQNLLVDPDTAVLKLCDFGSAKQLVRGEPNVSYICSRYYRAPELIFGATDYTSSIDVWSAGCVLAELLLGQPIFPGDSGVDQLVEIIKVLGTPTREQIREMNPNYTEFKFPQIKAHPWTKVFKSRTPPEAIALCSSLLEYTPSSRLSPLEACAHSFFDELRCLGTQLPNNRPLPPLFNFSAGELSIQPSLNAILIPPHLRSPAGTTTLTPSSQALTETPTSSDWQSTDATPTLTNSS

COc1ccccc1C1C2=C(CC(C)(C)CC2=O)Nc2n[nH]c(C(C)C)c21 (stereo not shown) [Compound 49]
IC50 (GSK3β [1]): < 100 nM
ADP Glo Assay GSK3β vs CDK5 fold selectivity (CDK5/p25): 14X

Cc1[nH]nc2c1C(c1ccccc1Cl)C1=C(CC(C)(C)CC1=O)N2 (stereo not shown) [Compound 13, 4-(2-chlorophenyl)-3,7,7-trimethyl-6,7,8,9-tetrahydro-2H-pyrazolo[3,4-b]quinolin-5(4H)-one]
IC50 (GSK3α [2]): < 100 nM
IC50 (GSK3β [3]): 101 to 1000 nM
IC50 (GSK3β [1]): < 100 nM
ADP Glo Assay GSK3β vs CDK5 fold selectivity (CDK5/p25): 6X

CC1(C)CC(=O)C2=C(C1)Nc1n[nH]c(C(F)(F)F)c1C2c1cccc(F)c1C(F)(F)F (stereo not shown) [Compound 63]
IC50 (GSK3β [1]): < 100 nM
ADP Glo Assay GSK3β vs CDK5 fold selectivity (CDK5/p25): 276X

Cc1[nH]nc2c1C(c1ccccn1)C1=C(CC(C)(C)CC1=O)N2 (stereo not shown) [Compound 36, 3,7,7-trimethyl-4-(pyridin-2-yl)-6,7,8,9-tetrahydro-1H-pyrazolo[3,4-b]quinolin-5(4H)-one]
IC50 (GSK3α [4]): 1000 to 5000 nM
IC50 (GSK3β [5]): 101 to 1000 nM
IC50 (GSK3β [3]): 101 to 1000 nM
Kd (CK1δ): 5000 to 30000 nM
Kd (GSK3β [6]): 101 to 1000 nM

Cc1[nH]nc2c1C(c1ccccc1Br)C1=C(CC(C)(C)CC1=O)N2 (stereo not shown) [Compound 16]
IC50 (GSK3α [2]): < 100 nM
IC50 (GSK3β [1]): < 100 nM
ADP Glo Assay GSK3β vs CDK5 fold selectivity (CDK5/p25): 14X

Cc1[nH]nc2c1C(c1ccc(Br)cn1)C1=C(CC(C)(C)CC1=O)N2 (stereo not shown) [Compound 39, 4-(5-bromopyridin-2-yl)-3,7,7-trimethyl-6,7,8,9-tetrahydro-1H-pyrazolo[3,4-b]quinolin-5(4H)-one]
IC50 (GSK3α [4]): 1000 to 5000 nM
IC50 (GSK3β [5]): 1000 to 5000 nM
IC50 (GSK3β [3]): 1000 to 5000 nM
Kd (CK1δ): 5000 to 30000 nM
Kd (GSK3β [6]): 5000 to 30000 nM

Cc1[nH]nc2c1C(c1ccc3c(c1)OCO3)C1=C(CC(C)(C)CC1=O)N2 (stereo not shown) [Compound 26, 4-(benzo[d][1,3]dioxol-5-yl)-3,7,7-trimethyl-6,7,8,9-tetrahydro-1H-pyrazolo[3,4-b]quinolin-5(4H)-one]
IC50 (GSK3α [4]): 101 to 1000 nM
IC50 (GSK3β [5]): 1000 to 5000 nM
IC50 (GSK3β [3]): 1000 to 5000 nM
Kd (CK1δ): 101 to 1000 nM
Kd (GSK3β [6]): 1000 to 5000 nM

Cc1[nH]nc2c1[C@H](c1ccccc1C(F)(F)F)C1=C(CC(C)(C)CC1=O)N2 (racemic) [Compound 28, 3,7,7-trimethyl-4-(2-(trifluoromethyl)phenyl)-6,7,8,9-tetrahydro-2H-pyrazolo[3,4-b]quinolin-5(4H)-one]
IC50 (GSK3α [2]): < 100 nM
IC50 (GSK3β [3]): < 100 nM
IC50 (GSK3β [1]): < 100 nM
ADP Glo Assay GSK3β vs CDK5 fold selectivity (CDK5/p25): 12X

Cc1[nH]nc2c1C(c1cccnc1)C1=C(CC(C)(C)CC1=O)N2 (stereo not shown) [Compound 37, 3,7,7-trimethyl-4-(pyridin-3-yl)-6,7,8,9-tetrahydro-1H-pyrazolo[3,4-b]quinolin-5(4H)-one]
IC50 (GSK3α [4]): 101 to 1000 nM
IC50 (GSK3β [5]): 101 to 1000 nM
IC50 (GSK3β [3]): 101 to 1000 nM
Kd (CK1δ): 1000 to 5000 nM
Kd (GSK3β [6]): 101 to 1000 nM

Cc1[nH]nc2c1C(c1cccc3nonc13)C1=C(CC(C)(C)CC1=O)N2 (stereo not shown) [Compound 41]
IC50 (GSK3β [1]): < 100 nM
ADP Glo Assay GSK3β vs CDK5 fold selectivity (CDK5/p25): 51X

Cc1[nH]nc2c1C(c1ccsc1)C1=C(CC(C)(C)CC1=O)N2 (stereo not shown) [Compound 8, 3,7,7-trimethyl-4-(thiophen-3-yl)-6,7,8,9-tetrahydro-1H-pyrazolo[3,4-b]quinolin-5(4H)-one]
IC50 (GSK3α [4]): 101 to 1000 nM
IC50 (GSK3β [5]): 101 to 1000 nM
IC50 (GSK3β [3]): 1000 to 5000 nM
Kd (CK1δ): 101 to 1000 nM
Kd (GSK3β [6]): 101 to 1000 nM

CSc1ccccc1C1C2=C(CC(C)(C)CC2=O)Nc2n[nH]c(C)c21 (stereo not shown) [Compound 25, 3,7,7-trimethyl-4-(2-(methylthio)phenyl)-6,7,8,9-tetrahydro-2H-pyrazolo[3,4-b]quinolin-5(4H)-one]
IC50 (GSK3α [2]): < 100 nM
IC50 (GSK3β [3]): < 100 nM
IC50 (GSK3β [1]): < 100 nM
ADP Glo Assay GSK3β vs CDK5 fold selectivity (CDK5/p25): 124X

Cc1[nH]nc2c1C(c1ccc(Cl)cc1)C1=C(CC(C)(C)CC1=O)N2 (stereo not shown) [Compound 15, 4-(4-chlorophenyl)-3,7,7-trimethyl-6,7,8,9-tetrahydro-1H-pyrazolo[3,4-b]quinolin-5(4H)-one]
IC50 (GSK3α [4]): 101 to 1000 nM
IC50 (GSK3β [5]): 1000 to 5000 nM
IC50 (GSK3β [3]): 1000 to 5000 nM
Kd (CK1δ): 1000 to 5000 nM
Kd (GSK3β [6]): 1000 to 5000 nM

CC1(C)CC(=O)C2=C(C1)Nc1n[nH]c(C(F)(F)F)c1C2c1ccccc1 (stereo not shown) [Compound 52]
IC50 (GSK3β [1]): < 100 nM
ADP Glo Assay GSK3β vs CDK5 fold selectivity (CDK5/p25): 615X

Cc1[nH]nc2c1C(c1cccc(C#N)c1)C1=C(CC(C)(C)CC1=O)N2 (stereo not shown) [Compound 33, 3-(3,7,7-trimethyl-5-oxo-4,5,6,7,8,9-hexahydro-2H-pyrazolo[3,4-b]quinolin-4-yl)benzonitrile]
IC50 (GSK3α [2]): < 100 nM
IC50 (GSK3β [3]): < 100 nM
IC50 (GSK3β [1]): < 100 nM
ADP Glo Assay GSK3β vs CDK5 fold selectivity (CDK5/p25): 131X

Cc1[nH]nc2c1C(c1cccs1)C1=C(CC(C)(C)CC1=O)N2 (racemic) [Compound 5, 3,7,7-trimethyl-4-(thiophen-2-yl)-6,7,8,9-tetrahydro-1H-pyrazolo[3,4-b]quinolin-5(4H)-one]
IC50 (GSK3α [4]): 101 to 1000 nM
IC50 (GSK3β [5]): 101 to 1000 nM
IC50 (GSK3β [3]): 101 to 1000 nM
Kd (CK1δ): 101 to 1000 nM
Kd (GSK3β [6]): 101 to 1000 nM

Cc1[nH]nc2c1C(c1cccc(Cl)c1)C1=C(CC(C)(C)CC1=O)N2 (stereo not shown) [Compound 14, 4-(3-chlorophenyl)-3,7,7-trimethyl-6,7,8,9-tetrahydro-1H-pyrazolo[3,4-b]quinolin-5(4H)-one]
IC50 (GSK3α [2]): < 100 nM
IC50 (GSK3β [5]): 101 to 1000 nM
IC50 (GSK3β [3]): 101 to 1000 nM
Kd (CK1δ): 101 to 1000 nM
Kd (GSK3β [6]): 101 to 1000 nM

COc1ccc(C2C3=C(CC(C)(C)CC3=O)Nc3n[nH]c(C)c32)cc1 (stereo not shown) [Compound 24, 4-(4-methoxyphenyl)-3,7,7-trimethyl-6,7,8,9-tetrahydro-1H-pyrazolo[3,4-b]quinolin-5(4H)-one]
IC50 (GSK3α [4]): 5000 to 30000 nM
IC50 (GSK3β [5]): 1000 to 5000 nM
IC50 (GSK3β [3]): 5000 to 30000 nM
Kd (CK1δ): 1000 to 5000 nM
Kd (GSK3β [6]): 1000 to 5000 nM

CC1(C)CC(=O)C2=C(C1)Nc1n[nH]c(C(F)(F)F)c1[C@@H]2c1ccccc1C(F)(F)F (racemic) [Compound 72, 7,7-dimethyl-3-(trifluoromethyl)-4-(2-(trifluoromethyl)phenyl)-6,7,8,9-tetrahydro-2H-pyrazolo[3,4-b]quinolin-5(4H)-one]
IC50 (GSK3α [2]): < 100 nM
IC50 (GSK3β [5]): < 100 nM

Cc1[nH]nc2c1[C@H](c1ccccc1Br)C1=C(CC(C)(C)CC1=O)N2 (racemic) [Compound 80, 4-(2-bromophenyl)-3,7,7-trimethyl-6,7,8,9-tetrahydro-2H-pyrazolo[3,4-b]quinolin-5(4H)-one]
IC50 (GSK3α [2]): < 100 nM
IC50 (GSK3β [5]): < 100 nM

Cc1[nH]nc2c1[C@@H](c1ccccc1C#N)C1=C(CC(C)(C)CC1=O)N2 [Compound 32, 2-(3,7,7-trimethyl-5-oxo-4,5,6,7,8,9-hexahydro-2H-pyrazolo[3,4-b]quinolin-4-yl)benzonitrile]
IC50 (GSK3α [2]): < 100 nM
IC50 (GSK3β [3]): 101 to 1000 nM
IC50 (GSK3β [1]): < 100 nM
ADP Glo Assay GSK3β vs CDK5 fold selectivity (CDK5/p25): 30X

Cc1[nH]nc2c1C(c1ccn[nH]1)C1=C(CC(C)(C)CC1=O)N2 (stereo not shown) [Compound 40, 3,7,7-trimethyl-4-(1H-pyrazol-5-yl)-6,7,8,9-tetrahydro-1H-pyrazolo[3,4-b]quinolin-5(4H)-one]
IC50 (GSK3α [4]): 101 to 1000 nM
IC50 (GSK3β [5]): 101 to 1000 nM
IC50 (GSK3β [3]): 1000 to 5000 nM
Kd (CK1δ): 5000 to 30000 nM
Kd (GSK3β [6]): 5000 to 30000 nM

COc1cccc(C2C3=C(CC(C)(C)CC3=O)Nc3n[nH]c(C)c32)c1 (stereo not shown) [Compound 23, 4-(3-methoxyphenyl)-3,7,7-trimethyl-6,7,8,9-tetrahydro-1H-pyrazolo[3,4-b]quinolin-5(4H)-one]
IC50 (GSK3α [4]): 101 to 1000 nM
IC50 (GSK3β [5]): 101 to 1000 nM
IC50 (GSK3β [3]): 101 to 1000 nM
Kd (CK1δ): 1000 to 5000 nM
Kd (GSK3β [6]): 5000 to 30000 nM

CCc1[nH]nc2c1C(c1ccccc1OC)C1=C(CC(C)(C)CC1=O)N2 (stereo not shown) [Compound 48]
IC50 (GSK3β [1]): < 100 nM
ADP Glo Assay GSK3β vs CDK5 fold selectivity (CDK5/p25): 35X

Cc1[nH]nc2c1C(c1ccc(Cl)s1)C1=C(CC(C)(C)CC1=O)N2 (stereo not shown) [Compound 9, 4-(5-chlorothiophen-2-yl)-3,7,7-trimethyl-6,7,8,9-tetrahydro-1H-pyrazolo[3,4-b]quinolin-5(4H)-one]
IC50 (GSK3α [4]): 101 to 1000 nM
IC50 (GSK3β [5]): 101 to 1000 nM
IC50 (GSK3β [3]): 1000 to 5000 nM
Kd (CK1δ): 1000 to 5000 nM
Kd (GSK3β [6]): 101 to 1000 nM

COC(=O)c1[nH]nc2c1C(C)(c1ccccc1)C1=C(CC(C)(C)CC1=O)N2 (stereo not shown) [Compound 104]
IC50 (GSK3α [2]): < 100 nM
IC50 (GSK3β [5]): < 100 nM

CC1(C)CC(=O)C2=C(C1)Nc1n[nH]c(C(F)(F)F)c1C2(C)c1ccccc1 (racemic) [Compound 68, 4,7,7-trimethyl-4-phenyl-3-(trifluoromethyl)-6,7,8,9-tetrahydro-2H-pyrazolo[3,4-b]quinolin-5(4H)-one]
IC50 (GSK3α [2]): < 100 nM
IC50 (GSK3β [3]): < 100 nM
IC50 (GSK3β [1]): < 100 nM
ADP Glo Assay GSK3β vs CDK5 fold selectivity (CDK5/p25): 244X

CC1(C)CC(=O)C2=C(C1)Nc1n[nH]c(C(F)(F)F)c1C2c1cc(F)ccc1C(F)(F)F (stereo not shown) [Compound 64]
IC50 (GSK3β [1]): < 100 nM
ADP Glo Assay GSK3β vs CDK5 fold selectivity (CDK5/p25): 162X

Cc1[nH]nc2c1C(c1cccc(F)c1)C1=C(CC(C)(C)CC1=O)N2 (stereo not shown) [Compound 11, 4-(3-fluorophenyl)-3,7,7-trimethyl-6,7,8,9-tetrahydro-1H-pyrazolo[3,4-b]quinolin-5(4H)-one]
IC50 (GSK3α [2]): < 100 nM
IC50 (GSK3β [5]): 101 to 1000 nM
IC50 (GSK3β [3]): 101 to 1000 nM
ADP Glo Assay GSK3β vs CDK5 fold selectivity (CDK5/p25): 61X
Kd (CK1δ): 101 to 1000 nM
Kd (GSK3β [6]): 1000 to 5000 nM

Cc1[nH]nc2c1C(c1ccc(F)cc1Cl)C1=C(CC(C)(C)CC1=O)N2 (stereo not shown) [Compound 35, 4-(2-chloro-4-fluorophenyl)-3,7,7-trimethyl-6,7,8,9-tetrahydro-1H-pyrazolo[3,4-b]quinolin-5(4H)-one]
IC50 (GSK3α [4]): 101 to 1000 nM
IC50 (GSK3β [5]): 101 to 1000 nM
IC50 (GSK3β [3]): 1000 to 5000 nM
ADP Glo Assay GSK3β vs CDK5 fold selectivity (CDK5/p25): 7X
Kd (CK1δ): 5000 to 30000 nM
Kd (GSK3β [6]): 5000 to 30000 nM

CC1(C)CC(=O)C2=C(C1)Nc1n[nH]c(C(F)(F)F)c1C2c1ccccc1F (stereo not shown) [Compound 58]
IC50 (GSK3β [1]): < 100 nM
